Calls of active or inactive are those of the source. The rule behind the calls is not given here.
Tests used:
Cladosporium herbarum [1] = assay: Antifungal activity against Cladosporium herbarum assessed as growth inhibition at 23 degC measured after 72 hr; assay type: functional
Spodoptera littoralis = assay: Feeding deterrence in Spodoptera littoralis in compound treated lettuce disk assessed as feeding ratio measured as area consumed of treated disks per area consumed of the control disk at 20 ug/disk by disk choice assay; assay type: functional
Artemia salina = assay: Toxicity in Artemia salina (brine shrimp) measured after 24 hr; assay type: organism-based; settings: in vivo
Cladosporium herbarum [2] = assay: Antifungal activity against Cladosporium herbarum assessed as growth inhibition at 0.006 mg/mL at 23 degC measured after 72 hr; assay type: functional, organism-based

## O=C(OC[C@H](O)c1ccccc1)c1ccccc1
Cladosporium herbarum [1]
  MIC: 0.05 mg
Spodoptera littoralis
  Ratio: 0.73
Artemia salina
  LC50: 7.4 ppm

## O=C(/C=C\c1ccccc1)OCCc1ccccc1
Spodoptera littoralis
  Ratio: 0.5
Artemia salina
  LC50: < 2.5 ppm

## O=C1C2CC=CCC2C(=O)N1SC(Cl)(Cl)Cl (configuration not stated) [CAPTAN]
Cladosporium herbarum [1]
  MIC: 0.02 mg

## CS/C=C/C(=O)OCCc1ccccc1 [ISOTACHIN B]
Cladosporium herbarum [1]
  MIC: 0.006 mg
Spodoptera littoralis
  Ratio: 0.44
Cladosporium herbarum [2]
  growth inhibition (GI): Active
Artemia salina
  LC50: < 2.5 ppm

## CC(=O)N1CCN(c2ccc(OCC3COC(Cn4ccnc4)(c4ccc(Cl)cc4Cl)O3)cc2)CC1 (configuration not stated) [KETOCONAZOLE]
Cladosporium herbarum [1]
  MIC: 0.01 mg

## Cl[C@H]1[C@H](Cl)[C@@H](Cl)[C@@H](Cl)[C@H](Cl)[C@H]1Cl [LINDANE]
Artemia salina
  LC50: 7.2 ppm

## O=C(OCCc1ccccc1)c1ccccc1 [PHENETHYL BENZOATE]
Cladosporium herbarum [1]
  MIC: 0.1 mg
Spodoptera littoralis
  Ratio: 0.56
Artemia salina
  LC50: < 2.5 ppm

## O=C(/C=C/c1ccccc1)OCCc1ccccc1 [PHENETHYL CINNAMATE]
Spodoptera littoralis
  Ratio: 0.96
Artemia salina
  LC50: < 2.5 ppm
